Assay results reported in patent US20170280722A1, “COMPOSITIONS AND METHODS FOR CONTROL OF SAND FLIES AND OTHER BLOOD SUCKING INSECTS” (GENESIS LABORATORIES, INC., priority 2010, published 2017).
Where “and” joins values, the source holds several entries; their conditions need not be identical. Equal values may be shown once. Entries after “also recorded” stand apart in the source; their conditions may differ.

What was measured:
[1] = system: P. argentipes 1st instar larvae; experiment: Larval bioassay with feces of insecticide treated R. rattus (feed through); format: in vivo
Method: In the first study, a feed through study comparing diflubenzuron, fipronil, ivermectin, and eprinomectin was conducted on rats (Rattus rattus). Fecal samples were collected after three (3) consecutive days of administration of the trial products. The efficacy of the drugs administered during the blind study underwent testing in larval bioassays with P. argentipes 1st instar larvae. Commercially available chicken feed was mixed with the appropriate concentrations of each insecticide compound and used as is in the trial.
Twelve (12) locally purchased rats (Rattus rattus) of mixed sex were utilized in a small study testing the efficacy of four feed through insecticides. Five treatment groups of two rats each were randomly identified and fed diets consisting of locally available chicken feed treated with one of the following compounds: diflubenzuron (0.048%), fipronil (0.015%), ivermectin (0.025%), and eprinomectin (0.01% and 0.025%). Two rats served as control and were fed only chicken feed. Rats were fed 20 g of their assigned diet daily at the same time, with daily consumption and spillage calculated for a period of three (3) days. Sand fly analyses were conducted simultaneously.
[…] Collected feces were dried at approximately 40° C. in an oven then ground into a fine powder utilizing a pestle and mortar and frozen at −20° C. until larval bioassays were initiated.
Larval bioassay pots were prepared using 48 mm, 100 g round Dibbi jars. Dishes were prepared by burning several small holes into the bottom of the dish with a soldering iron and filling them with a small layer of plaster (¼ to ½ inch depth). Approximately 15-20 holes were punctured into the lids using 24 gauge needles. For simpler mortality counting, pots were quartered and each quadrant numbered using an ultra fine black Sharpie.
For each individual post-treatment bioassays, thirteen (13) dishes were loaded with 10 day old 1st instar P. argentipes larvae; twelve (12) pots were provided with approximately 0.005 g of the treated feces, with two sample pots per treated bandicoot rat, and one overall control sample fed only standard larval diet. See Table 1 for sample/treatment correlations. Larvae were loaded into bioassay pots and provided with their designated treatment sample. Mortality counts of larvae were conducted every 24 hours post-treatment until 100% mortality, or pupation, was reached.

[2] = system: larval P. argentipes sand flies; experiment: Larval bioassay with feces of cattle given a single oral dose of fipronil; format: in vivo; details: for Days after dosing to attain 100% mortality in sand flies: cattle
Method: The test substance was given to the cattle orally as a single application. The oral treatment was by hand. Because the oral treatment was delivered in capsule form the dosage was very precise.
The four dose levels of fipronil for the treatment groups used in this study were as follows: 0.5, 1.0, 2.0 and 4.0 mg/kg. These were weighed with an analytical balance to the nearest 0.01 g and presented in gelatin capsules.
Collection of feces was performed at pre-dosing (day 0) and days 1, 3, 5, 7, 14, 21, and 28 following administration. Feces were sampled using arm length veterinarian sterile glove and about 50 g of feces was placed into individually label plastic jars. Samples were stored in a −20° C. freezer.
Larval bioassay jars were prepared using 48 mm, 100 g round Dibbi jars (Pearlpet, Pearl Polymers LTD., New Delhi, India). Jars were prepared by burning three small holes into the bottom of the container with a soldering iron. A thin layer (approximately 5 mm) of plaster of Paris was cast on the bottom and wetted to ensure humidity and softening of the test diet. To simplify mortality counts, the plaster was quartered, and each quadrant numbered one through four, using an ultra fine black marker. The lids of the jars were punctured with 15-20 small holes using a heated 24-gauge hypodermic needle.
Each bioassay jar was loaded with ten one to two day old first instar P. argentipes larvae. Approximately 5 mg treated feces were sprinkled evenly over the plaster. Larval bioassay samples were maintained in a controlled environment at approximately 24° C. with relative humidity maintained at approximately 80% through daily moistening of paper towels underneath the jars. Any observed mold or mites were removed during each day's observation. Each bioassay group included one control jar with larvae provided standard larval food consisting of rabbit feed, rabbit pellets, and dried chicken blood which were mixed, dried, composted, and crushed. Mortality counts of larvae were conducted every 24 hours post-exposure until 100% mortality or pupation was observed. Larvae were considered dead if no physical response was observed within 15 seconds of light stimulation with a blunt probe.

[3] = feces of R. rattus day-1 post treatment, 150 ppm

Structure (SMILES): N#Cc1nn(-c2c(Cl)cc(C(F)(F)F)cc2Cl)c(N)c1[S+]([O-])C(F)(F)F (stereo not drawn) [fipronil]
- Mean ± SEM survival (days) of P. arg larvae post-exposure [1, 3]: 2.25 ± 0.10 days
- P. argentipes larvae mortality (%) [1, 3]: 100%
- Day of observation by which 100% larval mortality was reached ([1]; feces of R. rattus fed 0.015% in feed): ≤ 3 days
- Time to paralysis of larvae after exposure ([1]; larvae exposed to feces of fipronil-treated animals): ≤ 24 h
- Speed of mortality and duration of effectiveness compared with the other compounds tested ([1]; larval P. argentipes, rodent feed through trials): quickest mortality and longest lasting effectiveness of all of the compounds tested; also recorded: quickest knockdown and longest lasting efficacy of all of the insecticides examined
- Larval mortality ([2]; all dose levels (0.5-4.0 mg/kg), over the 21-day study): 100%
- Day by which 100% sand fly mortality was attained ([2]; cattle feces of day 3 post-treatment, dose level not stated): ≤ 4 days
- Days after dosing to attain 100% mortality in sand flies ([2]; single oral dose 0.5 mg/kg, feces of day 1 after administration): 5.5 days
- Days after dosing to attain 100% mortality in sand flies ([2]; single oral dose 0.5 mg/kg, feces of day 3 after administration): 6.0 days
- Days after dosing to attain 100% mortality in sand flies ([2]; single oral dose 0.5 mg/kg, feces of day 5 after administration): 9.5 days
- Days after dosing to attain 100% mortality in sand flies ([2]; single oral dose 0.5 mg/kg, feces of day 14 after administration): 17 days
- Days after dosing to attain 100% mortality in sand flies ([2]; single oral dose 0.5 mg/kg, feces of day 21 after administration): 15.5 days
- Days after dosing to attain 100% mortality in sand flies ([2]; single oral dose 1.0 mg/kg, feces of day 1 after administration): 4.5 days
- Days after dosing to attain 100% mortality in sand flies ([2]; single oral dose 1.0 mg/kg, feces of day 3 after administration): 4.0 days
- Days after dosing to attain 100% mortality in sand flies ([2]; single oral dose 1.0 mg/kg, feces of day 5 after administration): 9.0 days
- Days after dosing to attain 100% mortality in sand flies ([2]; single oral dose 1.0 mg/kg, feces of day 14 after administration): 20 days
- Days after dosing to attain 100% mortality in sand flies ([2]; single oral dose 1.0 mg/kg, feces of day 21 after administration): 16.5 days
- Days after dosing to attain 100% mortality in sand flies ([2]; single oral dose 2.0 mg/kg, feces of day 1 after administration): 4.0 days
- Days after dosing to attain 100% mortality in sand flies ([2]; single oral dose 2.0 mg/kg, feces of day 3 after administration): 4.0 days
- Days after dosing to attain 100% mortality in sand flies ([2]; single oral dose 2.0 mg/kg, feces of day 5 after administration): 7.0 days
- Days after dosing to attain 100% mortality in sand flies ([2]; single oral dose 2.0 mg/kg, feces of day 14 after administration): 10 days
- Days after dosing to attain 100% mortality in sand flies ([2]; single oral dose 2.0 mg/kg, feces of day 21 after administration, 2 mg/kg): 12 days and 12.0 days
- Days after dosing to attain 100% mortality in sand flies ([2]; single oral dose 4.0 mg/kg, feces of day 1 after administration): 4.0 days
- Days after dosing to attain 100% mortality in sand flies ([2]; single oral dose 4.0 mg/kg, feces of day 3 after administration): 4.0 days
- Days after dosing to attain 100% mortality in sand flies ([2]; single oral dose 4.0 mg/kg, feces of day 5 after administration): 6.5 days
- Days after dosing to attain 100% mortality in sand flies ([2]; single oral dose 4.0 mg/kg, feces of day 14 after administration): 11 days
- Days after dosing to attain 100% mortality in sand flies ([2]; single oral dose 4.0 mg/kg, feces of day 21 after administration, 4 mg/kg): 10 days and 10.0 days
